Experiments:
Type in all cases: cell-based, human
ARP1 cells = test: Cell cycle analysis (PI, flow cytometry); conditions: ARP1, 1 μM, 24 hours
Protocol: MM cell lines ARP1, MM.1S and MM.1R were cultured with or without 1 μM compound A for 24 hours. Then, cells were harvested and permeabilized in 70% ethanol at 4° C. for overnight, and incubated with 50 μg/ml PI and 20 μg/ml RNase A for 15 min. DNA content was analyzed by flow cytometry and FlowJo software.
To study the mechanism of compound A induced MM cells growth inhibition and apoptosis, it was examined whether compound A treatment affects MM cell cycle.
(A). Representative histogram of ARP1 treated with 1 μM compound A for 1 day. (B). […] Cell cycle was tested as described.

CD138+ primary MM cells = test: Apoptosis of primary MM cells cocultured with BMSCs ex vivo; conditions: 10 μM, 24 hours, cocultured 1:1 with BMSCs
Protocol: (§1) MM cell lines ARP1, ARK, MM.1S, MM.1R and U266 were maintained in RPMI-1640 medium supplemented with 10% fetal bovine serum, 100 U/ml penicillin and 100 μg/ml streptomycin at 37° C. and 5% CO2 Primary MM cells and MM BMSCs were isolated from bone marrow aspirates of myeloma patients. PBMCs were obtained from healthy volunteers. The study was approved by the Institutional Review Board at The University of Texas M.D. Anderson Cancer Center. Anti-caspase-3, caspase-9, PARP, Bim, XIAP, cyclin D1, pp 70S6K (Thr389) and p27(Kip1) antibodies were purchased from Cell Signaling. Anti-bcl-2, Bc1-XL, Akt, pAkt (Thr 308), pAkt (Ser 473), p70S6K and β-actin antibodies were purchased from Santa Cruz. Compound A was dissolved in DMSO at 10 mM as stock solution. Dexamethasone and Propidium iodide (PI) were purchased from Sigma-Aldrich. Recombinant human IL6 was purchased from R&D Systems. FITC conjugated Annexin V was obtained from Invitrogen.
(§2) Apoptotic cells were determined as Annexin V positive cells.
To evaluate compound A function in primary MM cells, the study was extended to CD138+ primary MM cells freshly isolated from myeloma patients. […]
(A). […] Compound A induced MM cell apoptosis were measured by Annexin V staining as described in Materials and Methods. […] Cell growths were assessed by MTS assay. […]

[1] = test system: MM cell lines ARP1, ARK, MM.1S, MM.1R and U266; test: MTS cell growth assay, all tested MM cell lines; conditions: 0 to 1 mM, 1 or 3 days
Protocol: as §1
All experiments were performed in triplicate.
(A). Five MM cell lines ARP1, ARK, MM.1S, MM.1R and U266 were cultured in the presence of 0 to 1 mM compound A. Cells were harvested after 1 day or 3 days of treatment. Compound A induced MM cell apoptosis were measured by Annexin V staining as described in Materials and Methods. (B). Same MM cell lines were treated with 0 to 1 mM compound A for 1 or 3 days. Cell growths were assessed by MTS assay. (C). […]

U266 = test: Annexin V apoptosis assay
Protocol: Apoptotic cells were determined as Annexin V positive cells. […] Compound A induced MM cells apoptosis were measured as described in Materials and Methods.

[2] = test system: normal PBMCs from healthy volunteers; test: Apoptosis of normal PBMCs; conditions: 24 hours
Protocol: as §1, §2
To examine whether compound A induces normal PBMCs apoptosis, normal PBMCs from different healthy volunteers were incubated with 0 to 1 mM compound A for 24 hours. Cells apoptosis rate were measured as described above. […] Thus, these findings indicate that compound A has low cytotoxicity toward resting PBMCs.
(A). Five MM cell lines ARP1, ARK, MM.1S, MM.1R and U266 were cultured in the presence of 0 to 1 mM compound A. Cells were harvested after 1 day or 3 days of treatment. Compound A induced MM cell apoptosis were measured by Annexin V staining as described in Materials and Methods. (B). Same MM cell lines were treated with 0 to 1 mM compound A for 1 or 3 days. Cell growths were assessed by MTS assay. (C). Representative histograms of primary MM cells treated with compound A. (D). Data from 3 patients showing a dose-dependent induction of apoptosis in freshly isolated primary MM cells. Cells were treated with different doses of compound A for 1 day. (E). PBMCs isolated from 3 healthy volunteers were treated with compound A for 1 day.

[3] = test system: PI3K-Akt-mTOR pathway in MM cells; test: Immunoblotting, PI3K-Akt-mTOR pathway
Protocol: as §1
To further analyze the signaling pathways that were affected by compound A exposure in MM cells, immunoblotting was extended to other cell signaling molecules. First, the inhibitory effect of compound A on PI3K-Akt-mTOR pathway in MM cells was tested. […] This is probably because of increased apoptotic cells after compound A treatment. […] Such findings indicate that compound A inhibits PI3K-Akt-mTOR pathways in MM cells.
(A). […] Compound A induced activation and cleavage of caspase-3, caspase-9 and PARP is shown. (B). Same MM cells treated with 10 μM compound A were lysed for western blotting. (C) RP1 cells were treated with 10 μM compound A for 1, 6, 12 and 24 hours.

[4] = test system: MM cell lines ARP1, MM.1S and MM.1R; test: Apoptosis with or without IL-6 addition; conditions: 10 μM compound A, rhIL-6
Protocol: IL-6 is an important survival cytokine for MM (Klein B, Zhang X G, Jourdan M, et al. Interleukin-6 is the central tumor growth factor in vitro and in vivo in multiple myeloma. Eur Cytokine Netw. 1990; 1 (4):193-201; Gado K, Domjan G, Hegyesi H, Falus A. Role of INTERLEUKIN-6 in the pathogenesis of multiple myeloma. Cell Biol Int. 2000; 24 (4):195-209). […] For this purpose, different MM cell lines ARP1, MM.1S and MM.1R were cultured with or without recombinant hIL-6 (final concentration […]) and treated with or without 10 μM compound A for 2 days. As a positive control, MM.1S cells were treated with 40 μg/ml of dexamethasone with or without hIL-6 addition for the same period of time.
MM cell lines ARP1, MM.1S and MM.1R were cultured with 10 μM compound A for 3 days. rhIL-6 were added to final concentration of 5 ng/ml. As a positive control, MM.1S cells were treated with 40 μg/ml dexamethasone in the presence of 5 ng/ml of rhIL6 for the same time. Cells apoptosis rate was measured by annexin V staining. (B). Same MM cells were co-cultured with or without MM BMSC, and treated with 10 μM of compound A for 1 day. As a positive control, MM.1S cells were cocultured with or without BMSC and treated with 40 μg/ml dexamethasone for 1 day. CD138+ MM cells apoptosis rate was measured by Annexin V staining.

## Nc1cc(C(F)(F)F)c(-c2cc(N3CCOCC3)nc(N3CCOCC3)n2)cn1 [compound A, 5-(2,6-di-morpholin-4-yl-pyrimidin-4-yl)-4-trifluoromethyl-pyridin-2-ylamine]
ARP1 cells
  G1 phase cells: increased
  S phase cells: decreased
CD138+ primary MM cells
  primary MM cells apoptosis: more than 70%
[1]
  MM cells growth inhibition: dose dependent growth inhibition
U266
  sensitivity to compound A induced apoptosis compared to other MM cell lines: less sensitive
[2]; 0 to 1 mM
  toxicity toward normal PBMCs: comparably low toxicity
[2]; 10 μM
  PBMC apoptosis: less than 40%
[2]; 100 μM
  PBMC apoptosis: less than 40%
[3]; 10 μM compound A
  p-Akt at Ser473 and Thr308: down-regulated
[3]; ARP1 and MM.1R cells, 10 μM
  total Akt levels: decreased
[3]; tested MM cell lines, 10 μM
  p-P70S6K levels: decreased
  total P70S6K expression: remained constant
[4]
  effect of IL6 addition on compound A induced MM cell apoptosis: did not affect
